Experimental data from the NIST ThermoML archive (doi:10.1021/je3007474).
Numbers after ± are expanded uncertainties.

Assays:
[1] = 101 kPa, Liquid; for viscosity: Falling or rolling sphere viscometry; for mass density: Vibrating tube method
[2] = xn = mol fraction of the nth substance listed; conditions: 101 kPa, Liquid, x2 = 0; for viscosity: Falling or rolling sphere viscometry; for mass density: Vibrating tube method

Row | SMILES | viscosity ([1]; 298.15 K) [mPa·s] | mass density ([1]; 298.15 K) [kg/m3] | viscosity ([1]; 303.15 K) [mPa·s] | mass density ([1]; 303.15 K) [kg/m3] | viscosity ([1]; 313.15 K) [mPa·s] | mass density ([1]; 313.15 K) [kg/m3] | viscosity ([1]; 323.15 K) [mPa·s] | mass density ([1]; 323.15 K) [kg/m3] | viscosity ([1]; 333.15 K) [mPa·s] | mass density ([1]; 333.15 K) [kg/m3] | viscosity ([1]; 343.15 K) [mPa·s] | mass density ([1]; 343.15 K) [kg/m3] | viscosity ([1]; 353.15 K) [mPa·s] | mass density ([1]; 353.15 K) [kg/m3] | viscosity ([2]; 298.15 K) [mPa·s] | mass density ([2]; 298.15 K) [kg/m3] | viscosity ([2]; 303.15 K) [mPa·s] | mass density ([2]; 303.15 K) [kg/m3] | viscosity ([2]; 313.15 K) [mPa·s] | mass density ([2]; 313.15 K) [kg/m3] | other results
1 | C[S+](C)[O-] [dimethyl sulfoxide] | 2.012 ± 0.025 | 1095.74 ± 0.07 | 1.843 ± 0.023 | 1090.73 ± 0.07 | 1.556 ± 0.019 | 1080.69 ± 0.07 | 1.337 ± 0.016 | 1070.66 ± 0.06 | 1.165 ± 0.014 | 1060.63 ± 0.06 | 1.028 ± 0.013 | 1050.58 ± 0.06 | 0.917 ± 0.011 | 1040.51 ± 0.05 | – | – | – | – | – | – | –
2 | CC#N [acetonitrile] + CCCCn1cc[n+](C)c1C.F[B-](F)(F)F | – | – | – | – | – | – | – | – | – | – | – | – | – | – | 0.37 ± 0.005 | 776.55 ± 0.15 | 0.354 ± 0.004 | 771.13 ± 0.15 | 0.327 ± 0.004 | 760.18 ± 0.15 | viscosity ([2]; 323.15 K): 0.302 ± 0.004 mPa·s; mass density ([2]; 323.15 K): 749.11 ± 0.16 kg/m3; viscosity ([2]; 333.15 K): 0.281 ± 0.004 mPa·s; mass density ([2]; 333.15 K): 737.86 ± 0.16 kg/m3; viscosity ([2]; 343.15 K): 0.262 ± 0.003 mPa·s; mass density ([2]; 343.15 K): 726.43 ± 0.17 kg/m3
3 | CCCCn1cc[n+](C)c1C.F[B-](F)(F)F [1-butyl-2,3-dimethylimidazolium tetrafluoroborate] | 650 ± 56 | 1193.19 ± 0.12 | 447 ± 33 | 1189.8 ± 0.12 | 232.9 ± 12 | 1183.02 ± 0.11 | 132.8 ± 4.4 | 1176.38 ± 0.11 | 81.53 ± 1.5 | 1169.82 ± 0.11 | 53.99 ± 0.56 | 1163.26 ± 0.11 | 37.13 ± 0.46 | 1156.71 ± 0.1 | – | – | – | – | – | – | –
4 | C[S+](C)[O-] [dimethyl sulfoxide] + CCCCn1cc[n+](C)c1C.F[B-](F)(F)F | – | – | – | – | – | – | – | – | – | – | – | – | – | – | 2.012 ± 0.025 | 1095.74 ± 0.07 | 1.843 ± 0.023 | 1090.73 ± 0.07 | 1.556 ± 0.019 | 1080.69 ± 0.07 | viscosity ([2]; 323.15 K): 1.337 ± 0.016 mPa·s; mass density ([2]; 323.15 K): 1070.66 ± 0.06 kg/m3; viscosity ([2]; 333.15 K): 1.165 ± 0.014 mPa·s; mass density ([2]; 333.15 K): 1060.63 ± 0.06 kg/m3; viscosity ([2]; 343.15 K): 1.028 ± 0.013 mPa·s; mass density ([2]; 343.15 K): 1050.58 ± 0.06 kg/m3; viscosity ([2]; 353.15 K): 0.917 ± 0.011 mPa·s; mass density ([2]; 353.15 K): 1040.51 ± 0.05 kg/m3
5 | CC#N [acetonitrile] | 0.37 ± 0.005 | 776.55 ± 0.15 | 0.354 ± 0.004 | 771.13 ± 0.15 | 0.327 ± 0.004 | 760.18 ± 0.15 | 0.302 ± 0.004 | 749.11 ± 0.16 | 0.281 ± 0.004 | 737.86 ± 0.16 | 0.262 ± 0.003 | 726.43 ± 0.17 | – | – | – | – | – | – | – | – | –
